Data reported in US9096832B2, “Differentiation of human embryonic stem cells” (LifeScan, Inc., priority 2007, dated 2015).

System: H9 embryonic stem cells
Experiment: Microarray analysis of definitive endoderm stage cells on […] or MEFs +/- Wnt-3a (Table VI)
Type: cell-based, human
Settings: low serum, on MEFS

## Activin A: activin A (a member of the TGFβ superfamily), R&D Systems; 'w/o wnt' in Table VII = 100 ng/ml Activin A without Wnt3a
  Intensity (log): Homo sapiens haptoglobin-related protein (HPR), mRNA: −1.196
  Intensity (log): Homo sapiens homeobox protein goosecoid mRNA, complete cds: 1.894
  Intensity (log): Homo sapiens hypothetical protein FLJ10718 (FLJ10718), mRNA: 5.552
  Intensity (log): Homo sapiens hypothetical protein FLJ10970 (FLJ10970), mRNA: 3.02
  Intensity (log): Homo sapiens hypothetical protein FLJ11316 (FLJ11316), mRNA: 0.7553
  Intensity (log): Homo sapiens hypothetical protein FLJ22252 similar to SRY-box containing gene 17 (FLJ22252), mRNA: 4.5979
  Intensity (log): Homo sapiens lumican (LUM), mRNA: 0.9488
  Intensity (log): Homo sapiens mRNA for GATA-6, complete cds: 5.343
  Intensity (log): Homo sapiens mRNA for KIAA1409 protein, partial cds: −1.032
  Intensity (log): Homo sapiens mRNA; cDNA DKFZp434D0818 (from clone DKFZp434D0818): −0.3056
  Intensity (log): Homo sapiens mRNA; cDNA DKFZp586J0624 (from clone DKFZp586J0624); complete cds: 3.699
  Intensity (log): Homo sapiens presenilin stabilization factor b (PSF) mRNA, complete cds; alternatively spliced: 0.5675
  Intensity (log): Homo sapiens reserved (KCNK12), mRNA: 3.78
  Intensity (log): Homo sapiens retinoid X receptor, gamma (RXRG), mRNA: −0.3204
  Intensity (log): Homo sapiens sema domain, immunoglobulin domain (Ig), short basic domain, secreted, (semaphorin) 3E (SEMA3E), mRNA: 1.276
  Intensity (log): Homo sapiens sema domain, seven thrombospondin repeats (type 1 and type 1-like), transmembrane domain (TM) and short cytoplasmic domain, (semaphorin) 5A (SEMA5A), mRNA: 1.487
  Intensity (log): Homo sapiens solute carrier family 21 (prostaglandin transporter), member 2 (SLC21A2), mRNA: 2.433
  Intensity (log): Homo sapiens type VI collagen alpha 2 chain precursor (COL6A2) mRNA, complete cds, alternatively spliced: 2.845
  Intensity (log): Homo sapiens, alpha-1 (VI) collagen: −2.269
  Intensity (log): Homo sapiens, clone MGC: 4655, mRNA, complete cds: 2.476
  Intensity (log): Human (clone 8B1) Br-cadherin mRNA, complete cds: −1.026
  Intensity (log): Human (clone HSY3RR) neuropeptide Y receptor (NPYR) mRNA, complete cds: 5.48
  Intensity (log): Human DNA sequence from clone RP1-181C24 on chromosome 6p11.1-12.2. Contains the 3 end of the BMP5 gene for bone morphogenetic protein 5, ESTs, STSs and GSSs: −0.3731
  Intensity (log): Human Fritz mRNA, complete cds: 3.915
  Intensity (log): Human dipeptidyl peptidase IV (CD26) mRNA, complete cds: −1.256
  Intensity (log): Human glycophorin HeP2 mRNA, partial cds: 0.2335
  Intensity (log): Human link protein mRNA, complete cds: −1.263
  Intensity (log): Human mRNA for alpha-1 type II collagen: −0.3802
  Intensity (log): Human mRNA for apolipoprotein AI (apo AI): 2.497
  Intensity (log): Human prostatic secretory protein 57 mRNA, complete cds: −0.4077
  Intensity (log): KIAA1462 protein: 0.4371
  Intensity (log): MCP-1 = monocyte chemotactic protein (human, aortic endothelial cells, mRNA, 661 nt): 2.955
  Intensity (log): Rho GDP dissociation inhibitor (GDI) alpha: −2.582
  Intensity (log): WAS protein family, member 2: −1.06
  Intensity (log): collagen, type IX, alpha 2: 2.935
  Intensity (log): collagen, type VI, alpha 1: 0.6042
  Intensity (log): hepatocyte nuclear factor 4, alpha: 0.4452
  Intensity (log): homeo box HB9: 1.631
  Intensity (log): hypothetical protein FLJ21032: 2.618
  Intensity (log): hypothetical protein FLJ23091: 3.78
  Intensity (log): microfibrillar-associated protein 4: −0.6009
  Intensity (log): myristoylated alanine-rich protein kinase C substrate (MARCKS, 80K-L): 0.3357
  Intensity (log): neuropilin 1: −1.9667
  Intensity (log): noggin: 1.33
  Intensity (log): splicing factor, arginine serine-rich 5: 4.272
  Intensity (log): stanniocalcin 1: 6.143
r13
  Intensity (log): ESTs: −4.27
r16
  Intensity (log): ESTs: −2.6475
r20
  Intensity (log): solute carrier family 16 (monocarboxylic acid transporters), member 3: 0.279
r30
  Intensity (log): Homo sapiens solute carrier family 16 (monocarboxylic acid transporters), member 3 (SLC16A3), mRNA: 1.724
r49
  Intensity (log): ESTs: 0.967
r50
  Intensity (log): glycophorin B (includes Ss blood group): −0.1297
r62
  Intensity (log): ESTs: −0.2374
r66
  Intensity (log): Homo sapiens HNF-3beta mRNA for hepatocyte nuclear factor-3 beta, complete cds: 2.825
r81
  Intensity (log): ESTs: −2.321
r92
  Intensity (log): ESTs: 0.926
r98
  Intensity (log): ESTs: −2.206
r108
  Intensity (log): ESTs: −1.825
r121
  Intensity (log): Homo sapiens phorbolin-like protein MDS019 (MDS019), mRNA: 2.408
r129
  Intensity (log): ESTs: 0.4204
r136
  Intensity (log): ESTs: 3.522
r137
  Intensity (log): ESTs: 0.761
r142
  Intensity (log): ESTs: 1.433
r145
  Intensity (log): ESTs: 1.0501
r165
  Intensity (log): Cluster Incl. AB028021: Homo sapiens HNF-3beta mRNA for hepatocyte nuclear factor-3 beta, complete cds: 4.117
r205
  Intensity (log): hypothetical protein FLJ23403: −2.313
r215
  Intensity (log): matrix metalloproteinase 14 (membrane-inserted): −0.5185
r218
  Intensity (log): Homo sapiens glycophorin B (includes Ss blood group) (GYPB), mRNA: 0.1803
r234
  Intensity (log): ESTs: 3.913
r240
  Intensity (log): ESTs: 3.125
r241
  Intensity (log): ESTs: −0.5703
r250
  Intensity (log): KIAA0878 protein: 4.789
r260
  Intensity (log): ESTs: 4.814
r270
  Intensity (log): Homo sapiens matrix metalloproteinase 14 (membrane-inserted) (MMP14), mRNA: −0.09689
r278
  Intensity (log): ESTs: 0.6202
r290
  Intensity (log): ESTs: 2.657
r301
  Intensity (log): ESTs: 3.372
r314
  Intensity (log): ESTs: −0.2982
r315
  Intensity (log): Homo sapiens hypothetical protein FLJ23403 (FLJ23403), mRNA: −1.004
r319
  Intensity (log): ESTs: −0.1895
r332
  Intensity (log): Homo sapiens KIAA0878 protein (KIAA0878), mRNA: 5.654
r340
  Intensity (log): phorbolin-like protein MDS019: 0.5035
r347
  Intensity (log): ESTs: 3.749
r376
  Intensity (log): ESTs: 0.8249
r377
  Intensity (log): ESTs: −1.364
